According to patent publication US20190127366A1 (LifeSci Pharmaceuticals, Inc., priority 2015, published 2019):

How the values were obtained:
[1] = biological target: T1, human complement factor D (Homo sapiens, UniProt P00746); test: In vitro enzyme inhibition (Z-Lys-SBzl/DTNB absorbance assay); type: biochemical; conditions: Complement Factor D (R&D Systems), substrate Z-Lys-SBzl, A405 nm; read-out: CFD IC50
T1 construct: purchased R&D Systems 1824-SE
Method in brief: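 Factor D (6.25 ng/μL before addition) preincubated 5 min RT with compound (8 points from 50 μM, 6-fold, 0.5% DMSO final) in 50 mM Tris/HCl pH 7.5, 1 M NaCl, then Z-Lys-SBzl/DTNB added (200 μM each before addition). A405 read kinetically every 30 s for 60 min; IC50 from variable-slope fit, controls with and without enzyme.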

[2] = test system: alternative pathway (AP) hemolytic activity; test: AP hemolysis inhibition assay; type: cell-based; conditions: Erythrocyte, 1 h; Normal Human Serum, chicken or rabbit erythrocytes, 60 min at 37° C., OD 414 nm
Method: The ability of the compounds disclosed herein to inhibit alternative pathway (AP) hemolytic activity was determined. Red blood cells (RBC), chicken or rabbit erythrocyctes (SbjBio), were washed three time using assay buffer containing 0.1% gelatin, 5 mM Veronal, 145 mM NaCl, 0.025% NaN3, 10 mM Mg-EGTA pH 7.3. In 100 μL reaction system, 1300 to 1500 ng/μL final concentration of Normal Human Serum (CompTech) was incubated with compound for 15 min at 37° C. Then 2×10^6 cells/well of chicken or rabbit erythrocytes in assay buffer were added and incubated for an additional 60 min at 37° C. Positive control (100% lysis) consists of serum and RBC, and negative control (0% lysis) consists of assay buffer and RBC only. Samples were centrifuged at 2000 g for 5 min, and supernatants collected. Optical density of the supernatant is monitored at 414 nm using Synergy 2 (BioTek). Percentage lysis in each sample is calculated relative to positive control (100% lysis).
Table 3 discloses the inhibitory activity of the compounds provided herein in the hemolysis assay.

T1 sequence (P00746 26-253): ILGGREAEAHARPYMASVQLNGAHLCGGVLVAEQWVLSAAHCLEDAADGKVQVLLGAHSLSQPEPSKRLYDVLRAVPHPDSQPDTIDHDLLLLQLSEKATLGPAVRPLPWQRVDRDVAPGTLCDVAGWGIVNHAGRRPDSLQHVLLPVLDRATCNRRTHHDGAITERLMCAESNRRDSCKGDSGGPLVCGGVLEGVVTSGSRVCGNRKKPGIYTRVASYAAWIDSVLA

IC50 [1] [nM]	Structure (SMILES)	EC50 [2] [nM]
< 100	Cc1ccc2c(c1)c(C(N)=O)nn2CC(=O)N1[C@H](C(=O)Nc2cccc(Cl)n2)C[C@@H]2CCC[C@@H]21 [Example 168, 1-(2-((2S,3aS,6aS)-2-((6-chloropyridin-2-yl)carbamoyl)hexahydrocyclopenta[b]pyrrol-1(2H)-yl)-2-oxoethyl)-5-methy1-1H-indazole-3-carboxamide]	100 to 1000
100 to 1000	NC(=O)c1nn(CC(=O)N2C(C(=O)NCc3cccc(Cl)c3F)[C@@H]3C[C@@H](O)[C@H]2[C@H]3O)c2ccccc12 (stereo partly drawn) [Example 152, 1-(2-((1S,4S,6R,7S)-3-((3-chloro-2-fluorobenzyl)carbamoyl)-6,7-dihydroxy-2-azabicyclo[2.2.1]heptan-2-yl)-2-oxoethyl)-1H-indazole-3-carboxamide]	100 to 1000
< 100	NC(=O)c1nn(CC(=O)N2[C@@H]3CC[C@@H](C3)[C@H]2C(=O)Nc2cccc(Br)n2)c2ccccc12 [Example 65, 1-(2-((1R,3S,4S)-3-((6-bromopyridin-2-yl)carbamoyl)-2-azabicyclo[2.2.1]heptan-2-yl)-2-oxoethyl)-1H-indazole-3-carboxamide]	100 to 1000
< 100	NC(=O)c1nn(CC(=O)N2CC[C@H]2C(=O)NCc2cccc(Cl)c2F)c2cnccc12 [Example 189, (S)-1-(2-(2-((3-chloro-2-fluorobenzyl)carbamoyl)azetidin-1-yl)-2-oxoethyl)-1H-pyrazolo[3,4-c]pyridine-3-carboxamide]	100 to 1000
100 to 1000	CC(=O)c1nn(CC(=O)N2[C@@H]3CC[C@@H](C3)[C@H]2C(=O)Nc2cccc(Cl)n2)c2cnccc12 [Example 66, (1R,3S,4S)-2-(2-(3-acetyl-1H-pyrazolo[3,4-c]pyridin-1-yl)acetyl)-N-(6-chloropyridin-2-yl)-2-azabicyclo[2.2.1]heptane-3-carboxamide]	100 to 1000
100 to 1000	NC(=O)c1nn(CC(=O)N2[C@@H]3CC[C@@H](C3)[C@H]2C(=O)NCc2cccc(Cl)c2F)c2ccccc12 [Example 38, 1-(2-((1R,3S,4S)-3-((3-chloro-2-fluorobenzyl)carbamoyl)-2-azabicyclo[2.2.1]heptan-2-yl)-2-oxoethyl)-1H-indazole-3-carboxamide]	1000 to 10000
< 100	NC(=O)c1nn(CC(=O)N2[C@H](C(=O)NCc3cccc(Cl)c3F)C[C@@H]3CCC[C@@H]32)c2cc(F)ccc12 [Example 167, 1-(2-((2S,3aS,6aS)-2-((3-chloro-2-fluorobenzyl)carbamoyl)hexahydrocyclopenta[b]pyrrol-1(2H)-y1)-2-oxoethyl)-6-fluoro-1H-indazole-3-carboxamide]	100 to 1000
< 100	NC(=O)c1nn(CC(=O)N2[C@@H]3CC[C@@H](C3)[C@H]2C(=O)Nc2cccc(Cl)n2)c2cc(C(=O)O)ccc12 [Example 123, 3-carbamoyl-1-(2-((1R,3S,4S)-3-((6-chloropyridin-2-yl)carbamoyl)-2-azabicyclo[2.2.1]heptan-2-yl)-2-oxoethyl)-1H-indazole-6-carboxylic acid]	< 100
100 to 1000	NC(=O)c1nn(CC(=O)N2CCCC[C@H]2C(=O)Nc2cccc(Cl)n2)c2ccccc12 [Example 21, (S)-1-(2-(2-((6-chloropyridin-2-yl)carbamoyl)piperidin-1-yl)-2-oxoethyl)-1H-indazole-3-carboxamide]	1000 to 10000
100 to 1000	CC(=O)c1nn(CC(=O)N2[C@H](C(=O)Nc3cccc(Cl)n3)C[C@@H]3CCC[C@@H]32)c2ccc(Cl)cc12 [Example 178, (2S,3aS,6aS)-1-(2-(3-acetyl-5-chloro-1H-indazol-1-yl)acetyl)-N-(6-chloropyridin-2-yl)octahydrocyclopenta[b]pyrrole-2-carboxamide]	–
100 to 1000	NC(=O)c1nn(CC(=O)N2[C@@H]3CC[C@@H](C3)[C@H]2C(=O)Nc2cccc(-c3ccccc3Cl)n2)c2ccccc12 [Example 44, 1-(2-((1R,3S,4S)-3-((6-(2-chlorophenyl)pyridin-2-yl)carbamoyl)-2-azabicyclo[2.2.1]heptan-2-yl)-2-oxoethyl)-1H-indazole-3-carboxamide]	–
1000 to 10000	NC(=O)c1nn(CC(=O)N2C3CCC(C3)[C@H]2C(=O)Nc2cccc(C(F)(F)F)n2)c2ccc(C3CC3)cc12 (stereo partly drawn) [Example 14, 5-cyclopropyl-1-(2-oxo-2-((3S)-3-((6-(trifluoromethyl)pyridin-2-yl)carbamoyl)-2-azabicyclo[2.2.1]heptan-2-yl)ethyl)-1H-indazole-3-carboxamide]	–
100 to 1000	N#Cc1ccc2c(c1)c(C(N)=O)nn2CC(=O)N1[C@H](C(=O)Nc2cccc(Cl)n2)C[C@@H]2CCC[C@@H]21 [Example 174, 1-(2-((2S,3aS,6aS)-2-((6-chloropyridin-2-yl)carbamoyl)hexahydrocyclopenta[b]pyrrol-1(2H)-yl)-2-oxoethyl)-5-cyano-1H-indazole-3-carboxamide]	–
1000 to 10000	NC(=O)c1nn(CC(=O)N2[C@@H]3CC[C@@H](C3)[C@H]2C(=O)Nc2cncc(Cl)c2)c2ccccc12 [Example 58, 1-(2-((1R,3S,4S)-3-((5-chloropyridin-3-yl)carbamoyl)-2-azabicyclo[2.2.1]heptan-2-yl)-2-oxoethyl)-1H-indazole-3-carboxamide]	–
1000 to 10000	NC(=O)c1nn(CC(=O)N2[C@H](C(=O)O)C[C@H]2C(=O)NCc2cccc(Cl)c2F)c2ccccc12 (relative stereo) [Example 195, trans-1-(2-(3-carbamoyl-1H-indazol-1-yl)acetyl)-4-((3-chloro-2-fluorobenzyl)carbamoyl)azetidine-2-carboxylic acid]	–
> 10000	NC(=O)c1nn(CC(=O)N2[C@@H]3CC[C@@H](C3)[C@H]2C(=O)Nc2cccc(-c3ccccc3F)n2)c2ccccc12 [Example 46, 1-(2-((1R,3S,4S)-3-((6-(2-fluorophenyl)pyridin-2-yl)carbamoyl)-2-azabicyclo[2.2.1]heptan-2-yl)-2-oxoethyl)-1H-indazole-3-carboxamide]	–
1000 to 10000	NC(=O)c1cc(Cl)c(F)c(CNC(=O)[C@@H]2[C@H]3CC[C@H](C3)N2C(=O)Cn2nc(C(N)=O)c3ccccc32)c1 [Example 112, 1-(2-((1R,3S,4S)-3-((5-carbamoyl-3-chloro-2-fluorobenzyl)carbamoyl)-2-azabicyclo[2.2.1]heptan-2-yl)-2-oxoethyl)-1H-indazole-3-carboxamide]	–
1000 to 10000	NC(=O)c1nn(CC(=O)N2[C@@H]3CC[C@@H](C3)[C@H]2C(=O)Nc2ccnc(Cl)c2)c2ccccc12 [Example 57, 1-(2-((1R,3S,4S)-3-((2-chloropyridin-4-yl)carbamoyl)-2-azabicyclo[2.2.1]heptan-2-yl)-2-oxoethyl)-1H-indazole-3-carboxamide]	–
1000 to 10000	NC(=O)c1nn(CC(=O)N2[C@@H]3CC[C@@H](C3)[C@H]2C(=O)Nc2cccc(C3CC3)n2)c2ccccc12 [Example 3, 1-(2-((1R,3S,4S)-3-((6-cyclopropylpyridin-2-yl)carbamoyl)-2-azabicyclo[2.2.1]heptan-2-yl)-2-oxoethyl)-1H-indazole-3-carboxamide]	–
> 10000	NCC(NC(=O)[C@@H]1[C@H]2CC[C@H](C2)N1C(=O)Cn1nc(C(N)=O)c2ccccc21)c1cccc(Cl)c1F (stereo partly drawn) [Example 140, 1-(2-((1R,3S,4S)-3-((2-amino-1-(3-chloro-2-fluorophenyl)ethyl)carbamoyl)-2-azabicyclo[2.2.1]heptan-2-yl)-2-oxoethyl)-1H-indazole-3-carboxamide]	–
1000 to 10000	NC(=O)c1nn(CC(=O)N2[C@@H]3CC[C@@H](C3)[C@H]2C(=O)NCc2cc(CO)cc(Cl)c2F)c2ccccc12 [Example 114, 1-(2-((1R,3S,4S)-3-((3-chloro-2-fluoro-5-(hydroxymethyl)benzyl)carbamoyl)-2-azabicyclo[2.2.1]heptan-2-yl)-2-oxoethyl)-1H-indazole-3-carboxamide]	–
100 to 1000	COC(=O)c1cc(Cl)nc(NC(=O)[C@@H]2[C@H]3CC[C@H](C3)N2C(=O)Cn2nc(C(N)=O)c3ccccc32)c1 [Example 103, methyl 2-((1R,3S,4S)-2-(2-(3-carbamoyl-1H-indazol-1-yl)acetyl)-2-azabicyclo[2.2.1]heptane-3-carboxamido)-6-chloroisonicotinate]	–
1000 to 10000	NC(=O)c1nn(CC(=O)N2[C@H]3CC[C@H](CC3)[C@@H]2C(=O)Nc2cccc(Cl)n2)c2ccccc12 [Example 155, (1S,3R,4S)-2-(2-(3-carbamoyl-1H-indazol-1-yl)acetyl)-N-(6-chloropyridin-2-yl)-2-azabicyclo[2.2.2]octane-3-carboxamide]	–

Structure (SMILES)	IC50 [1] [nM]	EC50 [2] [nM]
COc1ccc(Cl)nc1NC(=O)[C@@H]1[C@H]2CC[C@H](C2)N1C(=O)Cn1nc(C(N)=O)c2ccccc21 [Example 96, 1-(2-((1R,3S,4S)-3-((6-chloro-3-methoxypyridin-2-yl)carbamoyl)-2-azabicyclo[2.2.1]heptan-2-yl)-2-oxoethyl)-1H-indazole-3-carboxamide]	< 100	< 100
